Results from ChEMBL document CHEMBL4184320, “Optimization of Selective Mitogen-Activated Protein Kinase Interacting Kinases 1 and 2 Inhibitors for the Treatment of Blast Crisis Leukemia” (J Med Chem, 2018).
Converted amounts (≈) assume the structure as drawn. The source made the active and inactive calls. The rule behind the calls is not given here.

What was measured:
[1] = Cmax in CD-1 mouse at 5 mg/kg, po administered via gavage as single dose by LC-MS/MS analysis; type: ADME, organism-based; design: dose 5 mg/kg, route oral; details: in vivo
Homo sapiens [2] = species on record: Homo sapiens; assay: Antiproliferative activity against human GK5 cells after 48 hrs by CellTiter-Glo luminescence assay; type: functional, cell-based
[3] = target: Platelet-derived growth factor receptor beta (Homo sapiens) (UniProt P09619); assay: Inhibition of wild-type human partial length PDGFRB (V582 to Y1009 residues) expressed in bacterial expression system at 1 uM by Kinomescan method relative to control
Platelet-derived growth factor receptor beta (Homo sapiens), sequence (P09619 whole entry, the tested form may be a part): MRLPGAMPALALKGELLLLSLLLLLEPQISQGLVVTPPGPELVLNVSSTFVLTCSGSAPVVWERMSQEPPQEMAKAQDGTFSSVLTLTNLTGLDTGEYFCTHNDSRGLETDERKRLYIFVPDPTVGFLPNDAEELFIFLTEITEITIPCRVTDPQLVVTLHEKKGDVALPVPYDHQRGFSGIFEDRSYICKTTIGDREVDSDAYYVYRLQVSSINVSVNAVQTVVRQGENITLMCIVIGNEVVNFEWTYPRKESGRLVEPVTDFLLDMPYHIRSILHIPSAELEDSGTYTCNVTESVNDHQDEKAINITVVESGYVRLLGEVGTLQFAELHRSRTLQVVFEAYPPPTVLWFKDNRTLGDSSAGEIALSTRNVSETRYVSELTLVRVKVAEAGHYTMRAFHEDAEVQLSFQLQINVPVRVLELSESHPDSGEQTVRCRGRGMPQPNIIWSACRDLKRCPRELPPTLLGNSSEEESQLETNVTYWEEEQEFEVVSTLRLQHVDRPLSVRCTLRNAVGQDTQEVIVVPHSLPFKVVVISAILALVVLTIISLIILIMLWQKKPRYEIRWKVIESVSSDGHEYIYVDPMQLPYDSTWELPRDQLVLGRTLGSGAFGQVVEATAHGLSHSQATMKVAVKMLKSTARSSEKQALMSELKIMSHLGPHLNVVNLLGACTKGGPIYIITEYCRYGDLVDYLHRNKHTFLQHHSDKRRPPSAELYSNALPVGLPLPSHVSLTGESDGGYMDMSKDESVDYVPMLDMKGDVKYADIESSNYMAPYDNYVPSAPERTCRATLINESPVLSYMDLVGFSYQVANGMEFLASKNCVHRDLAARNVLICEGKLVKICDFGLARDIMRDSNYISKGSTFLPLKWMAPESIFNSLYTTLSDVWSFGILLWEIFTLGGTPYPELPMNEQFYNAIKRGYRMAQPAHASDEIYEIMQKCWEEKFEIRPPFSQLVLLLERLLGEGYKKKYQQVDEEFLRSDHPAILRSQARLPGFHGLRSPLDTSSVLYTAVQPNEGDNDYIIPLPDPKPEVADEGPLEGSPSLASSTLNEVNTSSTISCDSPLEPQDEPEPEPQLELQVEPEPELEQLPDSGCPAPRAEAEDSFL

[4] = Clearance in CD-1 mouse at 1 mg/kg, iv administered as single dose by LC-MS/MS analysis; type: ADME, organism-based; details: in vivo
[5] = Protein binding in mouse plasma at […] after 5 hrs by LC-MS/MS analysis; type: ADME, cell-free; details: read-out: PPB (converted)
Cytochrome P450 3A4 = Cytochrome P450 3A4 (Homo sapiens, UniProt P08684)
Cytochrome P450 3A4, sequence (P08684 whole entry): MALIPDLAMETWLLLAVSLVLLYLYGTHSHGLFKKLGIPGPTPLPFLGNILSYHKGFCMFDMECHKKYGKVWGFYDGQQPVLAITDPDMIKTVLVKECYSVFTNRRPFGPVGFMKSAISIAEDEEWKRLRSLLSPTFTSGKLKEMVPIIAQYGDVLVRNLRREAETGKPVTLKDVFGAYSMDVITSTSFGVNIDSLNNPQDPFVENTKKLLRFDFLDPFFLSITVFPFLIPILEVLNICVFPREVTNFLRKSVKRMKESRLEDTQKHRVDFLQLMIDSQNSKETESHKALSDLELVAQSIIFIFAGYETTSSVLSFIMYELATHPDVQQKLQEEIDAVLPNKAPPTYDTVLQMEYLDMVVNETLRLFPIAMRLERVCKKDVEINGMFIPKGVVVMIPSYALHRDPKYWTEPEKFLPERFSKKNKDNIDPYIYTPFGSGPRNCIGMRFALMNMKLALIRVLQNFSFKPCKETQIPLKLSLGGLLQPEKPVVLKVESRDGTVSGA
Description: Inhibition of CYP3A4 in human liver microsomes using midazolam as substrate preincubated for 5 mins followed by NADPH addition measured after 5 mins by LC-MS/MS analysis

[6] = Thermodynamic solubility of the compound at pH 4 to 7.4 pION buffer after 18 hrs by UV spectrophotometric analysis; type: physicochemical; details: read-out: Therm_solubility
[7] = target: Platelet-derived growth factor receptor alpha (Homo sapiens) (UniProt P16234); assay: Inhibition of wild-type human partial length PDGFRA (V575 to D1002 residues) expressed in mammalian expression system at 1 uM by Kinomescan method relative to control
Platelet-derived growth factor receptor alpha (Homo sapiens), sequence (P16234 whole entry, the tested form may be a part): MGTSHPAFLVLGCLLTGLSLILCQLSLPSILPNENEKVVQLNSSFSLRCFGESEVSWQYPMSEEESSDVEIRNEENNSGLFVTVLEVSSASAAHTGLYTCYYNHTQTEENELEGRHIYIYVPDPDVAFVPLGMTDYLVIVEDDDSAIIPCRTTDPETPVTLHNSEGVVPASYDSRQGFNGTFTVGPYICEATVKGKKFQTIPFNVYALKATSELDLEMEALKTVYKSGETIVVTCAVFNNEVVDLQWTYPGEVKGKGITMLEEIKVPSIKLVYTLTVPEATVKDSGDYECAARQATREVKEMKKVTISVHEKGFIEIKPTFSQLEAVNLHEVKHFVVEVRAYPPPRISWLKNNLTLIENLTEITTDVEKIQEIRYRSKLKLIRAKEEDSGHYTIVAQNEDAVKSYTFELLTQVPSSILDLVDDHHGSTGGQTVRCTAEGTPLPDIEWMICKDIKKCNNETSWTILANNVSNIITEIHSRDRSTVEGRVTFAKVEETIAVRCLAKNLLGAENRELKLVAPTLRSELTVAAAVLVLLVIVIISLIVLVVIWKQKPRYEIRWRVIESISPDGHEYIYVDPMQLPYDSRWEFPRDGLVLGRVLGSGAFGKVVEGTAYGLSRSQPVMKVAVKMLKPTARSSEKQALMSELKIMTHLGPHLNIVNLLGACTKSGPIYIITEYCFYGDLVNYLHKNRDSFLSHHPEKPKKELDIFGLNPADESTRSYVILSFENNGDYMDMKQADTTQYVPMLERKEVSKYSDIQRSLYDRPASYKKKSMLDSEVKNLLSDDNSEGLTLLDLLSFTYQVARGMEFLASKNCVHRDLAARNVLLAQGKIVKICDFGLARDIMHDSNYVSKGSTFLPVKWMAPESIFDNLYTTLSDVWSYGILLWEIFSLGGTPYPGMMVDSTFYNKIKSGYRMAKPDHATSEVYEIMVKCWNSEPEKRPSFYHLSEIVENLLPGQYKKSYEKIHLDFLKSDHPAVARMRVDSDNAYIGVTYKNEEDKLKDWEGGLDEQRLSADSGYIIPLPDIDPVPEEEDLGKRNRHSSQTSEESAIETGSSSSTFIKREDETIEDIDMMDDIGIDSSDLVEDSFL

[8] = target: Mast/stem cell growth factor receptor Kit (Homo sapiens) (UniProt P10721); assay: Inhibition of wild-type human partial length KIT (I571 to D952 residues) expressed in bacterial expression system at 1 uM by Kinomescan method relative to control
[9] = target: Serine/threonine-protein kinase 17A (Homo sapiens) (UniProt Q9UEE5); assay: Inhibition of wild-type human partial length DRAK1 (R32 to E363 residues) expressed in bacterial expression system at 1 uM by Kinomescan method relative to control
Cytochrome P450 2D6 = Cytochrome P450 2D6 (Homo sapiens, UniProt P10635); assay: Inhibition of CYP2D6 in human liver microsomes using dextromethorphan as substrate preincubated for 5 mins followed by NADPH addition by LC-MS/MS analysis; type: ADME
Cytochrome P450 2D6, sequence (P10635 whole entry): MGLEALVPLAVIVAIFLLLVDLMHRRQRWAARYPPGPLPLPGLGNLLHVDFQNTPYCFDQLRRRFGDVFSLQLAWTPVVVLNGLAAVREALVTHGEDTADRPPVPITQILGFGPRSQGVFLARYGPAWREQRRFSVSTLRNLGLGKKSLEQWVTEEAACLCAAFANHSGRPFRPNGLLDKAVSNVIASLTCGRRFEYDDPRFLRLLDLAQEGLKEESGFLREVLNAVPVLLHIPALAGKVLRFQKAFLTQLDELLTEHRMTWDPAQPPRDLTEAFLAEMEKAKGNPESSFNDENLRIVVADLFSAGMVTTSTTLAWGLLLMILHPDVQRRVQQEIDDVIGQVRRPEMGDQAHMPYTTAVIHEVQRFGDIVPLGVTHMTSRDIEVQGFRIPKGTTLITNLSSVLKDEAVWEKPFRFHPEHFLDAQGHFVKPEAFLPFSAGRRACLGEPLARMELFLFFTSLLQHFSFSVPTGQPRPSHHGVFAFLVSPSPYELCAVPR

[10] = Half life in dog liver microsomes at 1 uM in presence of NADPH by LC-MS/MS analysis; type: ADME, Canis lupus familiaris, microsome
Homo sapiens [11] = species on record: Homo sapiens; assay: Antiproliferative activity against human AHH1 cells after 48 hrs by CellTiter-Glo luminescence assay; type: functional, cell-based
[12] = target: Receptor-type tyrosine-protein kinase FLT3 (Homo sapiens) (UniProt P36888); assay: Inhibition of wild-type human partial length FLT3 (V592 to Y969 residues) expressed in bacterial expression system at 1 uM by Kinomescan method relative to control
Receptor-type tyrosine-protein kinase FLT3 (Homo sapiens), sequence (P36888 whole entry, the tested form may be a part): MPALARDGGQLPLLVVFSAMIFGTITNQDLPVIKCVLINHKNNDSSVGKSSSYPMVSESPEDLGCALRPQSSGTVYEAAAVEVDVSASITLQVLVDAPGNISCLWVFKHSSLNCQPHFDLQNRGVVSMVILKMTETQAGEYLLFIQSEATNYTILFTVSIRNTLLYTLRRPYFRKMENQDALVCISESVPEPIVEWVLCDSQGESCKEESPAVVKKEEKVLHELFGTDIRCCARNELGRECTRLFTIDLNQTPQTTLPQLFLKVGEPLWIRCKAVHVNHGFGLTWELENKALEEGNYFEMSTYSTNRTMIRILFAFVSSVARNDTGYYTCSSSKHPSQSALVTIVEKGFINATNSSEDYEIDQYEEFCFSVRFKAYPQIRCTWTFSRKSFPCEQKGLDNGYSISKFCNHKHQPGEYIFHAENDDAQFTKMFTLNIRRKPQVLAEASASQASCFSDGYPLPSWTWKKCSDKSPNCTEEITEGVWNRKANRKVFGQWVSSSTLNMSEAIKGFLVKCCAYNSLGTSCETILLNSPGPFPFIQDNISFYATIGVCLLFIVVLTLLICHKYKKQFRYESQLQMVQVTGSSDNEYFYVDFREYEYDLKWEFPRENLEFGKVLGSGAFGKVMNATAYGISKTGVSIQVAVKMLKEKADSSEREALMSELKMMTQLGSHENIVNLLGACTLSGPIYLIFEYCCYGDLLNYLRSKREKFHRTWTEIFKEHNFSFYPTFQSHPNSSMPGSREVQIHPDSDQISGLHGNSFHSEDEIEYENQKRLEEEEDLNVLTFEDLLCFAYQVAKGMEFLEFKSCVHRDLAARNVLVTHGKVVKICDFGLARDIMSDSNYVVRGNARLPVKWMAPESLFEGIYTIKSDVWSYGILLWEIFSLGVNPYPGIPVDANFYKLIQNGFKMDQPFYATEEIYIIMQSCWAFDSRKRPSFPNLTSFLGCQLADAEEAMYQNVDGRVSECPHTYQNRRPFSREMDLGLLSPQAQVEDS

[13] = target: MAP kinase-interacting serine/threonine-protein kinase 1 (Homo sapiens, UniProt Q9BUB5)
Description: Inhibition of GST-tagged MNK1 (37 to 341 residues) (unknown origin) expressed in Escherichia coli BL21(DE3) using JH3 peptide as substrate preincubated for 10 mins followed by substrate and ATP addition measured after 60 mins

DOHH-2 = assay: Antiproliferative activity against human DOHH2 cells after 48 hrs by CellTiter-Glo luminescence assay; type: functional, cell-based
[14] = target: MAP kinase-interacting serine/threonine-protein kinase 1/2 (Homo sapiens, UniProt Q9HBH9+Q9BUB5); assay: Inhibition of MNK1/2 in human HeLa cells assessed as decrease in eIF4E phosphorylation at Ser209 after 2 hrs by AlphaScreen assay; type: cell-based
[15] = target: SRSF protein kinase 3 (Homo sapiens) (UniProt Q9UPE1); assay: Inhibition of human SRPK3 (P41 to P567 residues) expressed in bacterial expression system at 1 uM by KINOMEscan assay relative to control
[16] = Initial concentration in CD-1 mouse at 1 mg/kg, iv administered as single dose by LC-MS/MS analysis; type: ADME, organism-based; details: in vivo
in vitro [17] = details: rat, liver microsomes
Description: Half life in rat liver microsomes at 1 uM in presence of NADPH by LC-MS/MS analysis

in vitro [18] = details: human, liver microsomes
Description: Half life in human liver microsomes at 1 uM in presence of NADPH by LC-MS/MS analysis

[19] = target: Receptor-type tyrosine-protein kinase FLT3 (Homo sapiens) (UniProt P36888); assay: Inhibition of wild-type human partial length FLT3 (V592 to Y969 residues) expressed in bacterial expression system by Kinomescan method
[20] = Half life in CD-1 mouse at 5 mg/kg, po administered via gavage as single dose by LC-MS/MS analysis; type: ADME, organism-based; details: in vivo
P3HR-1 = assay: Antiproliferative activity against human P3HR1 cells after 48 hrs by CellTiter-Glo luminescence assay; type: functional, cell-based
[21] = Half life in CD-1 mouse at 1 mg/kg, iv administered as single dose by LC-MS/MS analysis; type: ADME, organism-based; details: in vivo
[22] = AUClast in CD-1 mouse at 5 mg/kg, po administered via gavage as single dose by LC-MS/MS analysis; type: ADME, organism-based; design: dose 5 mg/kg, time 0 - last, route oral; details: in vivo
[23] = Protein binding in human plasma at […] after 5 hrs by LC-MS/MS analysis; type: ADME, cell-free; details: read-out: PPB (converted)
in vitro [24] = details: mouse, liver microsomes
Description: Half life in mouse liver microsomes at 1 uM in presence of NADPH by LC-MS/MS analysis

[25] = target: Phosphorylase b kinase gamma catalytic chain, liver/testis isoform (Homo sapiens) (UniProt P15735); assay: Inhibition of wild-type human partial length PHKG2 (M1 to W300 residues) expressed in bacterial expression system at 1 uM by Kinomescan method relative to control
[26] = target: MAP kinase-interacting serine/threonine-protein kinase 2 (Homo sapiens, UniProt Q9HBH9)
Description: Inhibition of GST-tagged MNK2 (72 to 385 residues) (unknown origin) expressed in Escherichia coli BL21(DE3) using JH3 peptide as substrate preincubated for 10 mins followed by substrate and ATP addition measured after 60 mins

[27] = Octanol-phosphate buffer partition coefficient, logD of compound at pH 7.4 by HPLC-UV analysis; type: physicochemical
[28] = target: Platelet-derived growth factor receptor alpha (Homo sapiens) (UniProt P16234); assay: Inhibition of wild-type human partial length PDGFRA (V575 to D1002 residues) expressed in mammalian expression system by Kinomescan method
[29] = AUClast in CD-1 mouse at 1 mg/kg, iv administered as single dose by LC-MS/MS analysis; type: ADME, organism-based; design: dose 1 mg/kg, time 0 - last, route intravenous; details: in vivo
[30] = Apparent permeability of the compound across apical side to basolateral side in human Caco2 cells by LC-MS/MS analysis; type: ADME, cell-based; details: Caco-2
[31] = Oral bioavailability in CD-1 mouse at 5 mg/kg administered via gavage as single dose by LC-MS/MS analysis; type: ADME, organism-based; details: in vivo
[32] = Permeability of the compound by PAMPA; type: ADME; details: read-out: permeability
[33] = Oral bioavailability in mouse at 50 mg/kg; type: ADME, organism-based; details: in vivo
K562 [34] = assay: Antitumor activity against human K562 cells overexpressing GFP-fussed full length mouse eIF4E xenografted in SCID mouse assessed as increase in tumor free animal at 100 mg/kg, po administered as qd via gavage for 14 days cotreated with 2.5 mg/kg dasatinib for 1 hr post dose; type: functional, organism-based
Mus musculus [35] = assay: Toxicity in SCID mouse xenografted with human K562 cells overexpressing GFP-fussed full length mouse eIF4E assessed as weight loss at 25 to 100 mg/kg, po qd administered via gavage for 14 days cotreated with 2.5 mg/kg dasatinib for 1 hr post dose; type: organism-based; details: in vivo
Mus musculus [36] = assay: Toxicity in NOD/SCID mouse assessed as change in weight loss up to 200 mg/kg, po administered gavage treated for 7 consecutive days measured for 7 days post last dose; type: organism-based; details: in vivo, 168 h
K562 [37] = assay: Antitumor activity against human K562 cells overexpressing GFP-fussed full length mouse eIF4E xenografted in SCID mouse assessed as tumor growth inhibition at 100 mg/kg, po qd administered via gavage for 14 days relative to control; details: 336 h, read-out: TGI
in vivo = details: CD-1, mouse, po, 5 mg/kg
Description: Tmax in CD-1 mouse at 5 mg/kg, po administered via gavage as single dose by LC-MS/MS analysis

K562 [38] = assay: Antitumor activity against human K562 cells overexpressing GFP-fussed full length mouse eIF4E xenografted in SCID mouse assessed as tumor growth inhibition administered as qd via gavage for 14 days cotreated with 2.5 mg/kg dasatinib for 1 hr post dose; type: functional, organism-based
Mus musculus [39] = assay: Down regulation of phosphorylated CRKL in CB17 SCID mouse xenografted with human K562 cells overexpressing GFP-fussed full length mouse eIF4E at 100 mg/kg, po administered as single dose up to 8 hrs cotreated with 2.5 mg/kg dasatinib by Western blot; type: functional, organism-based
Mus musculus [40] = assay: Toxicity in NOD/SCID mouse assessed as clinical adverse effect up to 200 mg/kg, po administered gavage treated for 7 consecutive days measured for 7 days post last dose; type: organism-based; details: in vivo, 168 h
Mus musculus [41] = assay: Down regulation of phosphorylated eIF4E in CB17 SCID mouse xenografted with human K562 cells overexpressing GFP-fussed full length mouse eIF4E at 100 mg/kg, po administered as single dose up to 8 hrs cotreated with 2.5 mg/kg dasatinib by Western blot; type: functional, organism-based
[42] = target: Dual specificity mitogen-activated protein kinase kinase; MEK1/2 (Homo sapiens) (UniProt P36507+Q02750); assay: Inhibition of MEK (unknown origin) at 1 uM by KINOMEscan assay relative to control; type: protein assay
Dual specificity mitogen-activated protein kinase kinase; MEK1/2 (Homo sapiens), sequence (P36507 whole entry, looked up): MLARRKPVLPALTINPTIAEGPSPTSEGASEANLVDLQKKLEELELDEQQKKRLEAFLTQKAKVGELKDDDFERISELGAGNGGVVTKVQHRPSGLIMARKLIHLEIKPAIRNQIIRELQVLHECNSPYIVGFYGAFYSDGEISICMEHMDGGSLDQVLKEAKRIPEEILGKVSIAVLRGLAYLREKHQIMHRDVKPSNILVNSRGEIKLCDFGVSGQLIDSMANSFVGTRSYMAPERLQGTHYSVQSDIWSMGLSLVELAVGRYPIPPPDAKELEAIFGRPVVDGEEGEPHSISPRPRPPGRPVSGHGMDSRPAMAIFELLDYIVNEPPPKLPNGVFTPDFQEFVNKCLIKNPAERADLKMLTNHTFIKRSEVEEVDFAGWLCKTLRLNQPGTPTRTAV
Dual specificity mitogen-activated protein kinase kinase; MEK1/2 (Homo sapiens), sequence (Q02750 whole entry, looked up): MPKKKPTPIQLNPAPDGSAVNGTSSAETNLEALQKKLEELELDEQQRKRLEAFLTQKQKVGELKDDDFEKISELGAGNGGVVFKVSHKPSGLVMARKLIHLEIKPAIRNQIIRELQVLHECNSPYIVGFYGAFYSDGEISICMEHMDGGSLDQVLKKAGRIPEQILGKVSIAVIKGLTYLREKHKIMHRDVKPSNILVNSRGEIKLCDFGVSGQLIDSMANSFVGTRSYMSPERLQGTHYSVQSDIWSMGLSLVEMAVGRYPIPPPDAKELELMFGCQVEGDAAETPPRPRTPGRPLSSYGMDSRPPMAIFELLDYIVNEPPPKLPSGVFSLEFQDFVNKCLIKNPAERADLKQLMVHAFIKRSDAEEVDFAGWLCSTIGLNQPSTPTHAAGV

K562 [43] = assay: Antitumor activity against human K562 cells overexpressing GFP-fussed full length mouse eIF4E xenografted in SCID mouse assessed as tumor growth inhibition at 2.5 mg/kg, po qd administered via gavage for 5 days on 2 days off per cycle for 2 cycles relative to control; type: functional; details: read-out: TGI

Row | Cmax [1] [ng/mL] | clearance [4] [mL/min/kg] | fraction unbound at 5 h [5] | IC50 (Cytochrome P450 3A4) [µM] | solubility thermodynamic at 18 h [6] [µg/mL] | IC50 (Cytochrome P450 2D6) [µM] | half-life at 1 µM [10] [h] | C0 [16] [ng/mL] | half-life at 1 µM (in vitro [17]) [h] | half-life at 1 µM (in vitro [18]) [h] | half-life [20] [h] | fraction unbound at 5 h [23] | half-life at 1 µM (in vitro [24]) [h] | logD [27] | Papp A→B [30] [×10⁻⁶ cm/s] | Papp [32] [×10⁻⁶ cm/s] | Compound | Activity (Homo sapiens [2]) | Activity (Homo sapiens [11]) | Activity (DOHH-2) | Activity (P3HR-1) | also measured
1 | 4400 | 2.67 | 0.055 | > 20 | 1.8 (≈ 4.4 µM) | > 20 | > 1 | 2940 | > 1 | 0.883 | 2.14 | 0.001 | > 1 | 2.1 | 38.5 | 30 | N#Cc1ccc(-c2cnc3ccc(-c4ccc(C(=O)N5CCOCC5)cc4)nn23)cc1 | Active | Active | Active | Active | inhibition [3]: > 65%; inhibition [7]: > 65%; inhibition [8]: > 65%; inhibition [9]: > 65%; inhibition [12]: > 65%; IC50 [13]: 0.023 µM; IC50 [14]: 0.421 µM; inhibition [15]: > 65%; INH [19]: 0.88 µM; half-life [21]: 2.32 h; AUC(0-t) [22]: 24100 ng·h/mL; inhibition [25]: > 65%; IC50 [26]: 0.041 µM; INH [28]: 0.25 µM; AUC(0-t) [29]: 6120 ng·h/mL; bioavailability [31]: 79%
2 |  |  | 0.129 | > 20 | > 125 | > 20 |  |  |  | 0.683 |  | 0.016 | 0.617 | 1.67 | 6.87 | 102 | CN1CCN(C(=O)c2ccc(-c3cn4c(-c5ccc(C#N)cc5)cnc4cn3)cc2)CC1 |  |  |  |  | bioavailability [33]: 48%
3 | 2480 | 9.33 | 0.158 | > 20 | 55.4 (≈ 136 µM) | > 20 | > 1 | 2380 | > 1 | 0.8 | 1.77 | 0.003 | 0.933 | 2.61 | 30.5 | 74.4 | N#Cc1ccc(-c2cnc3ccc(-c4ccc(C(=O)N5CCOCC5)cc4)cn23)cc1 [TINODASERTIB] | Active | Active | Active | Active | Activity (K562 [34]): Active; Activity (Mus musculus [35]): Non-Toxic; Activity (Mus musculus [36]): Non-Toxic; inhibition in vivo at 100 mg/kg (K562 [37]): 23%; Tmax (in vivo): 0.5 h; half-life [21]: 1.7 h; AUC(0-t) [22]: 5480 ng·h/mL; TGI (K562 [38]): Dose-dependent effect; Activity (Mus musculus [39]): Active; Activity (Mus musculus [40]): Non-Toxic; AUC(0-t) [29]: 1760 ng·h/mL; Activity (Mus musculus [41]): Active; bioavailability [31]: 64%; inhibition [42]: > 65%
4 |  |  |  |  |  |  |  |  |  |  |  |  |  |  |  |  | Cc1nc(Nc2ncc(C(=O)Nc3c(C)cccc3Cl)s2)cc(N2CCN(CCO)CC2)n1 [DASATINIB] |  |  |  |  | inhibition in vivo at 2.5 mg/kg (K562 [43]): 88%
